Data taken from US7189851B2, “Condensed heterocyclic compounds as calcitonin agonists” (SmithKline Beecham Corporation, priority 2002, dated 2007).

What was measured:
[1] = system: Thyroid-parathyroidectomized (TPTX) rats; assay: Rat TPTX assay in vivo (PTH-induced elevation of serum calcium); design: key to TPTX rat in vivo: Active: TPTX (Thyroid- parathyroidectomized) rat: Significant inhibition of bone resorption reflected in serum calcium levels relative to PTH + Vehicle controls; settings: for TPTX rat in vivo: serum calcium, PTH-infused TPTX rats, vs PTH + Vehicle
Excerpt: Thyroid-parathyroidectomized (TPTX) rats were used to determine the effects of compounds on PTH-induced elevation of serum calcium in vivo. The thyroid and parathyroid glands of male CD rats were removed under anesthesia and subcutaneous pumps containing human parathyroid hormone (hPTH 1–34) were implanted two to five days after TPTX. […] PTH was delivered at a rate of 30 micrograms/kg/hour. PTH causes significant elevations of serum calcium in TPTX rats given no other treatments. Rats were treated with vehicle, test compounds at various doses or calcitonin 16 units/kg SC. […] Serurn calcium was measured at baseline and every two hours up to six hours. Averaged group responses at each time point were compared using Analysis of Variance (ANOVA).

[2] = biological target: T1, human calcitonin-2 receptor (hCT2R) (Homo sapiens, UniProt P30988); assay: HCT2R CRE-luc reporter assay; type: cell-based; settings: agonist activity; CHO-6CRE-luciferase cells co-transfected with hCT2R
T1 construct: expressed in transfected cells; host or cells: Chinese hamster ovary (CHO) cells co-transfected with a 6CRE-luciferase reporter; receptor cDNA cloned from the MCF7 cell line
T1 sequence (P30988 25-474): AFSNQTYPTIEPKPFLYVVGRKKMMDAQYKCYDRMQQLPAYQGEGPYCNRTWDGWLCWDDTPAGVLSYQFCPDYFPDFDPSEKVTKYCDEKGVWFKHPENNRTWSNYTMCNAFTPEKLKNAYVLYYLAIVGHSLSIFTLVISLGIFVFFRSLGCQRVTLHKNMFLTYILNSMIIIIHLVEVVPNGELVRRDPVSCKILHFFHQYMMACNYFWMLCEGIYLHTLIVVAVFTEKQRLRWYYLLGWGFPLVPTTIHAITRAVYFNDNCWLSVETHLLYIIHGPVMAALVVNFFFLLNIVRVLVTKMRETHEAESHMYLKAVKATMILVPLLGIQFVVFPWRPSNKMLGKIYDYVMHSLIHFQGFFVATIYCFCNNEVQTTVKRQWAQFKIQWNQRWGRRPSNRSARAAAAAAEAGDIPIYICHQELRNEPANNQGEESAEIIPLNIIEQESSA

[3] = system: neonatal rat calvaria; assay: Rat calvaria assay in vitro (bone resorption); type: cell-based; design: key: Active: Rat calvaria: Concentration-dependent inhibition of bone resorption with efficacy equivalent to calcitonin 1 ng/ml; settings: PTH 10 ng/ml stimulated bone resorption; calcium and deoxypyridinoline in supernatant
Procedure: Bone resorption of neonatal rat cavarial chips was measured using methods adapted from published protocols [Ulf H, Lemer Modifications of the Mouse Calvarial Technique Improve the Responsiveness to Stimulators of Bone Resorption. Journal of Bone and Mineral Research Vol 2, No. 5, 1987]. Resorption was measured by quantification of calcium in the supernatant by a calorimetric assay and of deoxypyridinoline in the supernatant by ELISA. Deoxypyridinoline is released as a by product of collagen degradation by the osteoclast
Calvaria were surgically removed from 2–3 day old Wistar rats and placed in a sterile tube containing BGJb media (Fitton-Jackson Modification)—GIBCO BRL with penicillin (10 U/ml)/streptomycin (10 μg/ml). Calvaria were washed twice with fresh media, trimmed of excess tissue, and placed in fresh media. Calvaria were uniformly sectioned and placed in the wells of a tissue culture plate in 1 ml of BGJb/P/S with 1 mg/ml BSA. Calvaria were incubated for 24 hours at 37° C., 5% CO2 before treatments. Media was aspirated and replaced with 1 ml of fresh media containing PTH 10 ng/ml . Unstimulated wells contained media alone. Test compounds or calcitonin (1 ng/ml) were added. Compounds or calcitonin were added again on days 2 and 3, with no medium or PTH additions. Upon completion of the assay, the media was collected and stored at −20° C. until analysis was performed. Calvaria were air-dried for several days, and dry weight was quantified.
Deoxypyridinoline ELISA: Supernatants were evaluated for deoxypyridinoline crosslinks according to kit manufacturer instructions. SoftMax software was used to evaluate ELISA data from a 96-well format to generate a standard curve. Sample values were extrapolated from this standard curve. Extrapolated sample values were imported into a Microsoft Excel to normalize sample values to dried calvarial weight. Data was expressed as nanomolar DPD/mg calvaria.
Calcium analysis: Calcium determinations were made using Arsenazo III reagent from Sigma Diagnostics No. 588. Procedure followed as described by manufacturer in kit instructions. Data was imported from plate reader into Microsoft® Excel® and calcium concentrations were calculated as follows: [Asample/Astandard]×Concentration of standard=mg/dL Calcium
Sample values were normalized to dried calvarial weight and expressed as mg/dL calcium per mg calvaria.

[4] = system: Human osteoclasts; assay: Human osteoclast assay in vitro (bone resorption); type: cell-based; design: key: Active: Human osteoclast: Significant inhibition of bone resorption in the absence of toxicity, relative to vehicle-treated controls; settings: inhibition of bone resorption on cortical bone slices, 3 to 7 days
Procedure: Human osteoclasts were differentiated from peripheral blood cells using methods adapted from published protocols [Journal of Experimental Medicine 188(5):997–1001, 1998. TRANCE is necessary and sufficient for osteoblast-mediated activation of bone resorption in osteoclasts. K Fuller, B Wong, S Fox, Y Choi, and T J Chambers]. Human mononuclear cells were incubated on bone slices in M_CSF (30 ng/ml) and RANKL (TRANCE, 30 ng/ml) for 10 days. Differentiated osteoclasts were identified using an osteoclast-specific monoclonal antibody. Osteoclasts with test compounds or vehicle were incubated on cortical bone slices for an additional 3 to 7 days to measure bone resorption. In addition to bone resorption, toxicity and osteoclastogenesis were observed after compound treatments. A positive response was defined as significant inhibition of bone resorption without toxicity.

Compound | EC50 [2] [µM] | Rat calvaria in vitro [3] | also measured
CCOC(=O)c1c(CCc2ccc(C(F)(F)F)cc2)nc2c(c1-c1ccc(C(=O)N[C@H](C)c3ccncc3)cc1)C(=O)N1CCC[C@@H]21 [Example 4, Ethyl (9aS)-5-oxo-4-[4-({[(1R)-1-(4-pyridinyl)ethyl]amino}carbonyl)phenyl]-2-{2-[4-(trifluoromethyl)phenyl]ethyl}-7,8,9,9a-tetrahydro-5H-pyrido[2,3-a]pyrrolizine-3-carboxylate] | 0.01 to 0.1 | Active | TPTX rat in vivo [1]: Active
CCOC(=O)c1c(CCc2ccc(C(F)(F)F)cc2)nc2c(c1-c1ccc(C(=O)N[C@@H](C)c3ccncc3)cc1)C(=O)N1CCC[C@@H]21 [Example 5, Ethyl (9aS)-5-oxo-4-[4-({[(1S)-1-(4-pyridinyl)ethyl]amino}carbonyl)phenyl]-2-{2-[4-(trifluoromethyl)phenyl]ethyl}-7,8,9,9a-tetrahydro-5H-pyrido[2,3-α]pyrrolizine-3-carboxylate] | 0.1 to 1 | Active | TPTX rat in vivo [1]: Active; melting point: 158 to 160 °C
calcitonin [reference compound] |  |  | suppression of PTH-induced hypercalcemia ([1]; 16 units/kg SC, TPTX rats): maximal suppression
CCOC(=O)c1c(CCc2ccc(C(F)(F)F)cc2)nc2c(c1-c1ccc(S(=O)(=O)NCc3ccco3)cc1)C(=O)N1CCC[C@@H]21 [Example 2, Ethyl (9aS)-4-(4-{[(2-furylmethyl)amino]sulfonyl}phenyl)-5-oxo-2-{2-[4-(trifluoromethyl)phenyl]ethyl}-7,8,9,9a-tetrahydro-5H-pyrido[2,3-a]pyrrolizine-3-carboxylate] | 0.1 to 1 |  | melting point: 181 to 182 °C
CCOC(=O)c1c(CCc2ccc(C(F)(F)F)cc2)nc2c(c1-c1ccc(NC(=O)Nc3ccccc3)cc1)C(=O)N1CCC[C@@H]21 [Example 7, Ethyl (9aS)-4-{4-[(anilinocarbonyl)amino]phenyl}-5-oxo-2-{2-[4-(trifluoromethyl)phenyl]ethyl}-7,8,9,9a-tetrahydro-5H-pyrido[2,3-α]pyrrolizine-3-carboxylate] | 0.1 to 1 |  | melting point: 137 to 139 °C
N#Cc1c(CCc2ccc(C(F)(F)F)cc2)nc2c(c1-c1ccc(C(=O)NCc3ccco3)cc1)C(=O)N1CCC[C@@H]21 [Example 28, 4-((9aS)-3-Cyano-5-oxo-2-{2-[4-(trifluoromethyl)phenyl]ethyl}-7,8,9,9a-tetrahydro-5H-pyrido[2,3-α]pyrrolizin-4-yl)-N-(2-furylmethyl)benzamide] | 0.1 to 1 |  | 
CCOC(=O)c1c(CCc2ccc(F)cc2)nc2c(c1-c1ccc(C)cc1)C(=O)N1CCC[C@@H]21 [Example 40, Ethyl (9aS)-2-[2-(4-fluorophenyl)ethyl]-4-(4-methylphenyl)-5-oxo-7,8,9,9a-tetrahydro-5H-pyrido[2,3-α]pyrrolizine-3-carboxylate] | 0.1 to 1 |  | 

Further lines, with some results ahead:

EC50 [2] [µM] | Compound | Rat calvaria in vitro [3] | also measured
0.01 to 0.1 | CCOC(=O)c1c(CCc2ccc(C(F)(F)F)cc2)nc2c(c1-c1ccc(C(=O)NCc3cccnc3)o1)C(=O)N1CCC[C@@H]21 [Example 12, Ethyl(9aS)-5-oxo-4-(5-{[(3-pyridinylmethyl)amino]carbonyl}-2-furyl)-2-{2-[4-(trifluoromethyl)phenyl]ethyl}-7,8,9,9a-tetrahydro-5H-pyrido[2,3-a]pyrrolyzine-3-carboxylate] | Active | TPTX rat in vivo [1]: Active; Human osteoclast in vitro [4]: Active
≤ 0.01 | CCOC(=O)c1c(CCc2ccc(C(F)(F)F)cc2)nc2c(c1-c1ccc(C(=O)NCc3ccco3)cc1)C(=O)N1CCC[C@@H]21 [Example 11, Ethyl(9aS)-4-(4-{[(2-furylmethyl)amino]carbonyl}phenyl)-5-oxo-2-{2-[4-(trifluoromethyl)phenyl]ethyl}-7,8,9,9a-tetrahydro-5H-pyrido[2,3-a]pyrrolizine-3-carboxylate] | Active | Human osteoclast in vitro [4]: Active
≤ 0.01 | CCOC(=O)c1c(CCc2ccc(F)cc2)nc2c(c1-c1cc(C(=O)NCc3ccc(F)c(F)c3)cs1)C(=O)N1CCC[C@@H]21 [Example 16, Ethyl(9aS)-4-(4-{[(3,4-difluorobenzyl)amino]carbonyl}-2-thienyl)-2-[2-(4-fluorophenyl)ethyl]-5-oxo-7,8,9,9a-tetrahydro-5H-pyrido[2,3-a]pyrrolizine-3-carboxylate] | Active | TPTX rat in vivo [1]: Active
≥ 1 | CCOC(=O)c1c(CCc2ccc(F)cc2)cc2c(c1-c1ccc(C(=O)O)cc1)C(=O)N1CCC[C@@H]21 [Example 49, 4-{(9bS)-7-(ethoxycarbonyl)-8-[2-(4-fluorophenyl)ethyl]-5-oxo-2,3,5,9b-tetrahydro-1H-pyrrolo[2,1-α]isoindol-6-yl}benzoic acid] |  | 
≥ 1 | CCOC(=O)c1c(CCc2ccc(OC)cc2)nc2c(c1-c1ccc(C(=O)NCc3ccccn3)cc1)C(=O)N1CCC[C@H]1C2 [Example 57, Ethyl (9aS)-2-[2-(4-methoxyphenyl)ethyl]-5-oxo-4-(4-{[(2-pyridinylmethyl)amino]carbonyl}phenyl)-5,7,8,9,9a,10-hexahydropyrrolo[1,2-g][1,6]naphthyridine-3-carboxylate] |  | melting point: > 200 °C
0.1 to 1 | Ethyl (9aS)-4-(4-{[(2-furylmethyl)amino]carbonyl}phenyl)-5-oxo-2-{2-[4-(trifluoromethyl)phenyl]ethyl}-7,8,9,9a-tetrahydro-5H-pyrido[2,3-α]pyrrolizine-3-carboxylate-N-oxide [Example 38] |  | 
0.01 to 0.1 | Ethyl (9aS)-4-(4-{[(2-furylmethyl)amino]carbonyl}phenyl)-5-oxo-2-[2-(3-pyridinyl)ethyl]-7,8,9,9a-tetrahydro-5H-pyrido[2,3-α]pyrrolizine-3-carboxylate [Example 33] |  | 
